The NIST ThermoML archive (doi:10.1021/je5009125)

Experiment: xn = mol fraction of the nth substance listed
Conditions: Liquid; for mass density: Vibrating tube method; for viscosity: Vibrating wire viscometry

O=C=O [carbon dioxide] + O
Conditions	mass density [kg/m3]	viscosity [mPa·s]
274.72 K, 30290 kPa, x1 = 0.0271	1030.1	–
274.72 K, 50410 kPa, x1 = 0.0271	1038.8	–
274.72 K, 70530 kPa, x1 = 0.0271	1047.2	–
274.72 K, 100770 kPa, x1 = 0.0271	1059.2	–
274.73 K, 15010 kPa, x1 = 0.0086	1012	–
274.73 K, 30110 kPa, x1 = 0.0086	1019	–
274.73 K, 50240 kPa, x1 = 0.0086	1028.1	–
274.73 K, 70360 kPa, x1 = 0.0086	1036.8	–
274.73 K, 100670 kPa, x1 = 0.0086	1049.3	–
274.77 K, 15080 kPa, x1 = 0.0168	1017.3	–
274.77 K, 30190 kPa, x1 = 0.0168	1024.1	–
274.77 K, 50310 kPa, x1 = 0.0168	1033	–
274.77 K, 70430 kPa, x1 = 0.0168	1041.6	–
274.77 K, 100710 kPa, x1 = 0.0168	1053.9	–
294.27 K, 15100 kPa, x1 = 0.0168	–	1.049
294.27 K, 30200 kPa, x1 = 0.0168	–	1.044
294.27 K, 50200 kPa, x1 = 0.0168	–	1.044
294.27 K, 70200 kPa, x1 = 0.0168	–	1.041
294.27 K, 96300 kPa, x1 = 0.0168	–	1.046
294.3 K, 15100 kPa, x1 = 0.0086	–	1.013
294.3 K, 30200 kPa, x1 = 0.0086	–	1.014
294.3 K, 50300 kPa, x1 = 0.0086	–	1.012
294.3 K, 70300 kPa, x1 = 0.0086	–	1.008
294.3 K, 96400 kPa, x1 = 0.0086	–	1.008
294.31 K, 30300 kPa, x1 = 0.0271	–	1.096
294.31 K, 50300 kPa, x1 = 0.0271	–	1.095
294.31 K, 70400 kPa, x1 = 0.0271	–	1.097
294.31 K, 96500 kPa, x1 = 0.0271	–	1.1
296.17 K, 15100 kPa, x1 = 0.0086	1008.6	–
296.17 K, 30200 kPa, x1 = 0.0086	1015	–
296.17 K, 50260 kPa, x1 = 0.0086	1023.4	–
296.17 K, 70330 kPa, x1 = 0.0086	1031.4	–
296.17 K, 100650 kPa, x1 = 0.0086	1042.9	–
296.18 K, 30250 kPa, x1 = 0.0271	1025.3	–
296.18 K, 50360 kPa, x1 = 0.0271	1033.4	–
296.18 K, 70440 kPa, x1 = 0.0271	1041.2	–
296.18 K, 100760 kPa, x1 = 0.0271	1052.6	–
296.19 K, 15070 kPa, x1 = 0.0168	1013.3	–
296.19 K, 30170 kPa, x1 = 0.0168	1019.7	–
296.19 K, 50300 kPa, x1 = 0.0168	1027.9	–
296.19 K, 70410 kPa, x1 = 0.0168	1035.9	–
296.19 K, 100730 kPa, x1 = 0.0168	1047.3	–
322.91 K, 15000 kPa, x1 = 0.0168	–	0.568
322.91 K, 30100 kPa, x1 = 0.0168	–	0.573
322.91 K, 50200 kPa, x1 = 0.0168	–	0.578
322.91 K, 70200 kPa, x1 = 0.0168	–	0.584
322.91 K, 96200 kPa, x1 = 0.0168	–	0.592
322.93 K, 15000 kPa, x1 = 0.0086	–	0.56
322.93 K, 30100 kPa, x1 = 0.0086	–	0.564
322.93 K, 50200 kPa, x1 = 0.0086	–	0.568
322.93 K, 70200 kPa, x1 = 0.0086	–	0.573
322.93 K, 96300 kPa, x1 = 0.0086	–	0.582
323.12 K, 70400 kPa, x1 = 0.0271	–	0.606
323.12 K, 96500 kPa, x1 = 0.0271	–	0.615
323.43 K, 15060 kPa, x1 = 0.0168	1002.5	–
323.43 K, 30180 kPa, x1 = 0.0168	1008.8	–
323.43 K, 50300 kPa, x1 = 0.0168	1016.9	–
323.43 K, 70420 kPa, x1 = 0.0168	1024.6	–
323.43 K, 70460 kPa, x1 = 0.0271	1029.6	–
323.43 K, 100720 kPa, x1 = 0.0168	1035.7	–
323.43 K, 100780 kPa, x1 = 0.0271	1040.7	–
323.45 K, 15020 kPa, x1 = 0.0086	998.4	–
323.45 K, 30130 kPa, x1 = 0.0086	1004.7	–
323.45 K, 50250 kPa, x1 = 0.0086	1012.8	–
323.45 K, 70360 kPa, x1 = 0.0086	1020.6	–
323.45 K, 100720 kPa, x1 = 0.0086	1031.6	–
348.32 K, 15050 kPa, x1 = 0.0086	984.8	–
348.32 K, 30150 kPa, x1 = 0.0086	991.3	–
348.32 K, 50270 kPa, x1 = 0.0086	999.5	–
348.32 K, 70370 kPa, x1 = 0.0086	1007.3	–
348.32 K, 100710 kPa, x1 = 0.0086	1018.6	–
348.33 K, 70580 kPa, x1 = 0.0271	1015.3	–
348.33 K, 100780 kPa, x1 = 0.0271	1026.8	–
348.38 K, 30200 kPa, x1 = 0.0168	994.9	–
348.38 K, 50320 kPa, x1 = 0.0168	1003.2	–
348.38 K, 70450 kPa, x1 = 0.0168	1011.1	–
348.38 K, 100740 kPa, x1 = 0.0168	1022.4	–
373.03 K, 30100 kPa, x1 = 0.0168	–	0.2932
373.03 K, 50200 kPa, x1 = 0.0168	–	0.2989
373.03 K, 70200 kPa, x1 = 0.0168	–	0.304
373.03 K, 96200 kPa, x1 = 0.0168	–	0.3111
373.13 K, 15000 kPa, x1 = 0.0086	–	0.286
373.13 K, 30100 kPa, x1 = 0.0086	–	0.291
373.13 K, 50200 kPa, x1 = 0.0086	–	0.297
373.13 K, 70300 kPa, x1 = 0.0086	–	0.302
373.13 K, 96400 kPa, x1 = 0.0086	–	0.308
373.38 K, 70590 kPa, x1 = 0.0271	998.2	–
373.38 K, 100800 kPa, x1 = 0.0271	1010.3	–
373.42 K, 15090 kPa, x1 = 0.0086	967.8	–
373.42 K, 30180 kPa, x1 = 0.0086	974.6	–
373.42 K, 50280 kPa, x1 = 0.0086	983.2	–
373.42 K, 70390 kPa, x1 = 0.0086	991.5	–
373.42 K, 100710 kPa, x1 = 0.0086	1003.2	–
373.46 K, 30190 kPa, x1 = 0.0168	977.8	–
373.46 K, 50320 kPa, x1 = 0.0168	986.5	–
373.46 K, 70450 kPa, x1 = 0.0168	994.9	–
373.46 K, 100740 kPa, x1 = 0.0168	1006.7	–
374.09 K, 70300 kPa, x1 = 0.0271	–	0.309
374.09 K, 96400 kPa, x1 = 0.0271	–	0.318
397.88 K, 30100 kPa, x1 = 0.0168	–	0.233
397.88 K, 50200 kPa, x1 = 0.0168	–	0.238
397.88 K, 70200 kPa, x1 = 0.0168	–	0.244
397.88 K, 96300 kPa, x1 = 0.0168	–	0.25
397.98 K, 30100 kPa, x1 = 0.0086	–	0.231
397.98 K, 50200 kPa, x1 = 0.0086	–	0.236
397.98 K, 70300 kPa, x1 = 0.0086	–	0.242
397.98 K, 96400 kPa, x1 = 0.0086	–	0.248
398.48 K, 50470 kPa, x1 = 0.0271	970	–
398.48 K, 70600 kPa, x1 = 0.0271	979.3	–
398.48 K, 100800 kPa, x1 = 0.0271	992.1	–
398.55 K, 15060 kPa, x1 = 0.0086	948.3	–
398.55 K, 30170 kPa, x1 = 0.0086	955.6	–
398.55 K, 30190 kPa, x1 = 0.0168	958.2	–
398.55 K, 50290 kPa, x1 = 0.0086	964.9	–
398.55 K, 50330 kPa, x1 = 0.0168	967.8	–
398.55 K, 70390 kPa, x1 = 0.0086	973.7	–
398.55 K, 70460 kPa, x1 = 0.0168	976.7	–
398.55 K, 100710 kPa, x1 = 0.0086	986	–
398.55 K, 100730 kPa, x1 = 0.0168	989.4	–
398.98 K, 50200 kPa, x1 = 0.0271	–	0.241
398.98 K, 70200 kPa, x1 = 0.0271	–	0.245
398.98 K, 96300 kPa, x1 = 0.0271	–	0.254
422.91 K, 30000 kPa, x1 = 0.0168	–	0.192
422.91 K, 50100 kPa, x1 = 0.0168	–	0.196
422.91 K, 70200 kPa, x1 = 0.0168	–	0.202
422.91 K, 96200 kPa, x1 = 0.0168	–	0.208
423.82 K, 50200 kPa, x1 = 0.0271	–	0.198
423.82 K, 70300 kPa, x1 = 0.0271	–	0.204
423.82 K, 96500 kPa, x1 = 0.0271	–	0.21
423.84 K, 50460 kPa, x1 = 0.0271	948	–
423.84 K, 70580 kPa, x1 = 0.0271	958.1	–
423.84 K, 100810 kPa, x1 = 0.0271	972.1	–
423.92 K, 15070 kPa, x1 = 0.0086	925.9	–
423.92 K, 30180 kPa, x1 = 0.0086	934	–
423.92 K, 50300 kPa, x1 = 0.0086	944.2	–
423.92 K, 70420 kPa, x1 = 0.0086	953.8	–
423.92 K, 100710 kPa, x1 = 0.0086	967.1	–
423.93 K, 30200 kPa, x1 = 0.0168	935.7	–
423.93 K, 50340 kPa, x1 = 0.0168	946.2	–
423.93 K, 70460 kPa, x1 = 0.0168	956	–
423.93 K, 100730 kPa, x1 = 0.0168	969.7	–
424.03 K, 30100 kPa, x1 = 0.0086	–	0.19
424.03 K, 50200 kPa, x1 = 0.0086	–	0.194
424.03 K, 70200 kPa, x1 = 0.0086	–	0.199
424.03 K, 96400 kPa, x1 = 0.0086	–	0.205
448.29 K, 30000 kPa, x1 = 0.0168	–	0.163
448.29 K, 50100 kPa, x1 = 0.0168	–	0.168
448.29 K, 70100 kPa, x1 = 0.0168	–	0.173
448.29 K, 96200 kPa, x1 = 0.0168	–	0.179
448.71 K, 50200 kPa, x1 = 0.0271	–	0.169
448.71 K, 70200 kPa, x1 = 0.0271	–	0.173
448.71 K, 96400 kPa, x1 = 0.0271	–	0.179
448.93 K, 30000 kPa, x1 = 0.0086	–	0.162
448.93 K, 50100 kPa, x1 = 0.0086	–	0.167
448.93 K, 70200 kPa, x1 = 0.0086	–	0.172
448.93 K, 96300 kPa, x1 = 0.0086	–	0.178
449.17 K, 50450 kPa, x1 = 0.0271	923.6	–
449.17 K, 70570 kPa, x1 = 0.0271	934.9	–
449.17 K, 100800 kPa, x1 = 0.0271	950.3	–
449.2 K, 15080 kPa, x1 = 0.0086	900.7	–
449.2 K, 30190 kPa, x1 = 0.0086	909.9	–
449.2 K, 30210 kPa, x1 = 0.0168	910.8	–
449.2 K, 50310 kPa, x1 = 0.0086	921.3	–
449.2 K, 50360 kPa, x1 = 0.0168	922.6	–
449.2 K, 70420 kPa, x1 = 0.0086	931.8	–
449.2 K, 70470 kPa, x1 = 0.0168	933.5	–
449.2 K, 100710 kPa, x1 = 0.0086	946.4	–
449.2 K, 100740 kPa, x1 = 0.0168	948.4	–
